Consider one compound from the NIST ThermoML archive (doi:10.1016/j.tca.2017.07.015).

Numbers after ± are expanded uncertainties.

For series [1] the following is noted: Crystal; DTA.
A short description of series [2]: Molar enthalpy of transition or fusion. The settings on record: Crystal; DSC.

For the compound `ON=Cc1ccccc1` [benzaldehyde oxime], the Normal melting temperature in series [1] was determined as 29.70 ± 0.5 °C. Further, the “Molar enthalpy of transition or fusion” value in series [2] worked out at 3.39 ± 0.335 kcal/mol.
